Reference: patent US20230250096A1, “SUBSTITUTED PHENYL-1H-PYRROLO[2,3-c] PYRIDINE DERIVATIVES” (Janssen Pharmaceutica NV, priority 2021, published 2023)
Read-outs that look alike come from different tables or passages of the source.

What was measured:
MOLM14 cells = assay: Proliferation assay (spheroid confluence, 8 days), MOLM14; assay type: cell-based, human; details: read-out: spheroid assay_MOLM14 IC50
Method: The anti-proliferative effect of menin/MLL protein/protein interaction inhibitor test compounds was assessed in human leukemia cell lines. The cell line MOLM14 harbors a MLL translocation and expresses the MLL fusion protein MLL-AF9, respectively, as well as the wildtype protein from the second allele. OCI-AML3 cells that carry the NPM1c gene mutation were also tested. […] KO-52 was used as a control cell line containing two MLL (KMT2A) wildtype alleles in order to exclude compounds that display general cytotoxic effects.
MOLM14 cells were cultured in RPMI-1640 (Sigma Aldrich) supplemented with 10% heat-inactivated fetal bovine serum (HyClone), 2 mM L-glutamine (Sigma Aldrich) and 50 μg/ml gentamycin (Gibco). KO-52 and OCI-AML3 cell lines were propagated in alpha-MEM (Sigma Aldrich) supplemented with 20% heat-inactivated fetal bovine serum (HyClone), 2 mM L-glutamine (Sigma Aldrich) and 50 μg/ml gentamycin (Gibco).
In order to assess the anti-proliferative effects, 200 MOLM14 cells, 200 OCI-AML3 cells or 300 KO-52 cells were seeded in 200 μl media per well in 96-well round bottom, ultra-low attachment plates (Costar, catalogue number 7007). Cell seeding numbers were chosen based on growth curves to ensure linear growth throughout the experiment. Test compounds were added at different concentrations and the DMSO content was normalized to 0.3%. Cells were incubated for 8 days at 37° C. and 5% CO2. Spheroid like growth was measured in real-time by live-cell imaging (IncuCyteZOOM, Essenbio, 4×objective) acquiring images at day 8. Confluence (%) as a measure of spheroid size was determined using an integrated analysis tool.
In order to determine the effect of the test compounds over time, the confluence in each well as a measure of spheroid size, was calculated. Confluence of the highest dose of a reference compound was used as baseline for the LC (Low control) and the confluence of DMSO treated cells was used as 0% cytotoxicity (High Control, HC).
Absolute IC50 values were calculated as percent change in confluence as follows:
LC=Low Control: cells treated with e.g. 1 μM of the cytotoxic agent staurosporin, or e.g. cells treated with a high concentration of an alternative reference compound
HC=High Control: Mean confluence (%) (DMSO treated cells)
% Effect=100−(100*(Sample−LC)/(HC−LC))
GraphPad Prism (version 7.00) was used to calculate the IC50. Dose-response equation was used for the plot of % Effect vs Log10 compound concentration with a variable slope and fixing the maximum to 100% and the minimum to 0%.

[1] = molecular target: T1, menin/MLL (terbium chelate-labeled menin, FITC-MBM1 peptide) (Homo sapiens, UniProt O00255, T541A); assay: Menin/MLL homogenous time-resolved fluorescence (HTRF) assay; assay type: binding; details: 30 min incubation
T1 construct: Menin (a.a 1-610-6xhis tag, 2.3 mg/mL in 20 mM Hepes)
T1 sequence (O00255 with tags, fused parts or gaps T541A): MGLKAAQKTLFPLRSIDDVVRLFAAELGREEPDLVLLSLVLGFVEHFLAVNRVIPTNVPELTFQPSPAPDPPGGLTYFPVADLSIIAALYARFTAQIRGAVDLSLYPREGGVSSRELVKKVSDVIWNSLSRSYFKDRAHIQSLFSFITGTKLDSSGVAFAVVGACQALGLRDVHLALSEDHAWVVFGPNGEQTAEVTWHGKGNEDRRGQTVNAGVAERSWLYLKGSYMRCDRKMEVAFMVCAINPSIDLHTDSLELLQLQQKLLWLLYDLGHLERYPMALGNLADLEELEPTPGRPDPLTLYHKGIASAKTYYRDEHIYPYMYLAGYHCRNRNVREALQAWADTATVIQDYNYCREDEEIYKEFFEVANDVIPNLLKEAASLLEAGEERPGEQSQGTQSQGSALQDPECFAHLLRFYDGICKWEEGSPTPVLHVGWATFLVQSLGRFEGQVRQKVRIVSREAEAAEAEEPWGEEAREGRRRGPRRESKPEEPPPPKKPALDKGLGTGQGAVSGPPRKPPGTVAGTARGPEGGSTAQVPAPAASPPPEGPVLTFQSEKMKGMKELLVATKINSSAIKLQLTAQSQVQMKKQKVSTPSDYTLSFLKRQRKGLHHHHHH
In short: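 Terbium-labeled menin (a.a. 1-610, His-tagged; […]) pre-incubated 30 min with compound, then 75 nM FITC-MBM1 peptide added for 15 min at ambient temperature in Tris pH 7.5 buffer, 0.5% DMSO. HTRF 520/490 nm ratio read; IC50 from 11-point four-fold titrations, typically from 10 μM.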

MEIS1 mRNA expression = MEIS1 mRNA expression assay (Quantigene Singleplex) in MOLM14 cells; assay type: cell-based, human; details: 48 hours incubation
In short: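 MOLM14 cells, 3,750/well, exposed to increasing compound concentrations for 48 h. MEIS1 mRNA measured by QuantiGene Singleplex branched-DNA hybridization (lysis 45 min, hybridization 18–22 h, both 55 °C), normalized to RPL28. IC50 fitted to background-corrected fold change versus DMSO.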

| Compound | IC50 (MOLM14 cells; Homo sapiens, MOLM-14, MOLM14) [nM] | IC50 [1] [nM] | IC50 (MEIS1 mRNA expression; Homo sapiens, MOLM-14, 48 h) [nM] | IC50 (MOLM14 cells; MOLM14) [nM] | IC50 (MEIS1 mRNA expression) [nM] |
| --- | --- | --- | --- | --- | --- |
| Cc1cncc2c1c(C[C@@H]1CCN(C[C@H]3CCCCO3)C1)cn2-c1ccc(F)cc1C(=O)N(C)C(C)C (single isomer, unassigned) [Compound 147a] | 10 | 0.082 | 52 |  |  |
| CC(=O)N1CCC([C@@H](C)N2CC(Cc3cn(-c4ccc(F)cc4C(=O)N(C)C(C)C)c4cncc(C)c34)C2)CC1 (single isomer, unassigned) [Compound 150] | 1470 | 0.43 | > 1000 |  |  |
| CNC(=O)[C@H]1CC[C@H]([C@@H](C)N2CC(Cc3cn(-c4ccc(F)cc4C(=O)N(C)C(C)C)c4cncc(C)c34)C2)CC1 (single isomer, unassigned) [Compound 162] | 424 | 0.505 | > 1000 |  |  |
| CNC(=O)[C@H]1CC[C@H]([C@H](C)N2CC(Cc3cn(-c4ccc(F)cc4C(=O)N(C)C(C)C)c4cncc(C)c34)C2)CC1 (single isomer, unassigned) [Compound 163] | 456 | 0.192 | ~623 |  |  |
| CNC(=O)[C@H]1CC[C@H](CN2CC([C@@H](C)c3cn(-c4ccc(F)cc4C(=O)N(C)C(C)C)c4cncc(C)c34)C2)CC1 (single isomer, unassigned) [Compound 164a] | 154 | 0.209 | 249 |  |  |
| CN=[S@](=O)(c1cc(F)ccc1-n1cc(CC2CN(CC3CCOCC3)C2)c2c(C)cncc21)C(C)C (single isomer, unassigned) [Compound 166a] | 49 | 0.084 | 38 |  |  |
| CN=[S@@](=O)(c1cc(F)ccc1-n1cc(CC2CN(CC3CCOCC3)C2)c2c(C)cncc21)C(C)C (single isomer, unassigned) [Compound 166b] | 120 | 0.226 | 256 |  |  |
| Cc1cncc2c1c(CC1CN(CC3CCOCC3)C1)cn2-c1ccc(F)cc1[S@](=N)(=O)C(C)C (single isomer, unassigned) [Compound 167a] | 210 | 0.19 | > 1000 |  |  |
| Cc1cncc2c1c(CC1CN(CC3CCOCC3)C1)cn2-c1ccc(F)cc1[S@@](=N)(=O)C(C)C (single isomer, unassigned) [Compound 167b] | 99 | 0.118 | 117 |  |  |
| Cc1cncc2c1c(C[C@@H]1CCN(C[C@H]3CCNC(=O)CC3)C1)cn2-c1ccc(F)cc1C(=O)N(C)C(C)C (single isomer, unassigned) [Compound 169a] | 17 | 0.061 | 15 |  |  |
| Cc1cncc2c1c(C[C@@H]1CCN(C[C@@H]3CCNC(=O)CC3)C1)cn2-c1ccc(F)cc1C(=O)N(C)C(C)C (single isomer, unassigned) [Compound 169b] | 87 | 0.195 | ~220 |  |  |
| CC(=O)N1CC([C@@H](C)N2CC[C@@H](Cc3cn(-c4ccc(F)cc4C(=O)N(C)C(C)C)c4cncc(C)c34)C2)C1 (single isomer, unassigned) [Compound 175] | 234 | 1.33 | ~1050 |  |  |
| CC(=O)N1CC([C@H](C)N2CC[C@@H](Cc3cn(-c4ccc(F)cc4C(=O)N(C)C(C)C)c4cncc(C)c34)C2)C1 (single isomer, unassigned) [Compound 176] | 46 | 0.2 | 306 |  |  |
| Cc1cncc2c1c(C[C@@H]1CCN(CC3CCOCC3)C1)cn2-c1ccc(F)cc1C(=O)N1CCC[C@@]1(C)CO (single isomer, unassigned) [Compound 362b] | 12 | 0.067 | 19 |  |  |
| CC(=O)N1CCC(CN2CC[C@@H](Cc3cn(-c4ccc(F)cc4C(=O)N4CCC(O)C4C)c4cncc(C)c34)C2)CC1 (stereo in doubt) [Compound 325] | 1050 | 0.337 | 1340 |  |  |
| Cc1cncc2c1c(CC1CN(CC3CCC(=O)NC3)C1)cn2-c1ccc(F)cc1C(=O)N(C)C(C)C (stereo not drawn) [Compound 120] | 539 | 0.054 | 149 |  |  |
| CNC(=O)[C@H]1CC[C@H](CN2CC(C)(Cc3cn(-c4ccc(F)cc4C(=O)N(C)C(C)C)c4cncc(C)c34)C2)CC1 [Compound 140] | 15 | ~0.17 | 49 |  |  |
| Cc1cncc2c1c(C[C@@H]1CCN(C[C@@H]3CCCCN3)C1)cn2-c1ccc(F)cc1C(=O)N(C)C(C)C [Compound 148] | 88 | 0.086 | 238 |  |  |
| COC(=O)[C@H]1CC[C@H](CN2CC[C@@H](Cc3cn(-c4ccc(F)cc4C(=O)N(C)C(C)C)c4cncc(C)c34)C2)CC1 [Compound 154] | 91 | 0.14 | 244 |  |  |
| Cc1cncc2c1c(CC1CN(C[C@H]3CC[C@H](C(=O)NCCC#N)CC3)C1)cn2-c1ccc(F)cc1C(=O)N(C)C(C)C [Compound 155] | 49 | 0.051 | 54 |  |  |
| Cc1cncc2c1c(C[C@H]1CCN(CC3CCN(C(=O)NC4CC4)CC3)C1)cn2-c1ccc(F)cc1C(=O)N(C)C(C)C [Compound 157] | 2 | 0.02 | 6 |  |  |
| COCCNC(=O)[C@H]1CC[C@H](CN2CC(Cc3cn(-c4ccc(F)cc4C(=O)N(C)C(C)C)c4cncc(C)c34)C2)CC1 [Compound 158] | 6 | 0.045 | 24 |  |  |
| Cc1cncc2c1c(CC1CN(C[C@H]3CC[C@H](C(=O)NC4CC4)CC3)C1)cn2-c1ccc(F)cc1C(=O)N(C)C(C)C [Compound 159] | 3 | 0.019 | 10 |  |  |
| Cc1cncc2c1c(C[C@@H]1CCN(C3CCN(S(C)(=O)=O)CC3)C1)cn2-c1ccc(F)cc1C(=O)N(C)C(C)C [Compound 161] | 53 | 0.167 | 256 |  |  |
| CNC(=O)N1CCC(CN2CC[C@H](Cc3cn(-c4ccc(F)cc4C(=O)N(C)C(C)C)c4cncc(C)c34)C2)CC1 [Compound 168] |  | 0.1 |  | 8 | 16 |
| Cc1cncc2c1c(C[C@H]1CCN(CC3CCN(C(=O)N(C)C)CC3)C1)cn2-c1ccc(F)cc1C(=O)N(C)C(C)C [Compound 170] | 14 | 0.155 | 79 |  |  |
| COCCN(C)C(=O)N1CCC(CN2CC[C@@H](Cc3cn(-c4ccc(F)cc4C(=O)N(C)C(C)C)c4cncc(C)c34)C2)CC1 [Compound 172] | 11 | 0.134 | 18 |  |  |
| CON(C)C(=O)N1CCC(CN2CC[C@@H](Cc3cn(-c4ccc(F)cc4C(=O)N(C)C(C)C)c4cncc(C)c34)C2)CC1 [Compound 173] | 5 | 0.056 | 32 |  |  |
| Cc1cncc2c1c(C[C@@H]1CCN(CC3CCN(C(=O)N4CCOCC4)CC3)C1)cn2-c1ccc(F)cc1C(=O)N(C)C(C)C [Compound 174] | 7 | 0.048 | 34 |  |  |
